Reference: the supplement of paper PMC10307832

What was measured:
Assay in all cases: relative viability (nuclei count vs DMSO), 5 days (fraction); higher = more cells survive
[1] = compound: CC1=C(C(=O)N2C=CSC2=N1)CCN3CCC(=C(C4=CC=CC=C4)C5=CC=C(C=C5)F)CC3 + COc1cccc2cc(-c3nc([C@H]4CC[C@H](C(=O)O)CC4)n4ncnc(N)c34)[nH]c12 [OSI-027] (partner 0.5 µM)
How it was run: (§1)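 Five library-drug doses in √10 steps were combined with a fixed anchor-drug dose, or a single drug was given alone, by pin tool to lung cancer cell lines in 1536-well plates the day after seeding. Nuclei were stained and counted after 5 days. Relative viability is the nuclei count in treated wells over that in vehicle wells, taken as the median of duplicate plates.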

[2] = compound: CC1=C(C(=O)N2C=CSC2=N1)CCN3CCC(=C(C4=CC=CC=C4)C5=CC=C(C=C5)F)CC3 + CS(=O)(=O)CCNCc1ccc(-c2ccc3ncnc(Nc4ccc(OCc5cccc(F)c5)c(Cl)c4)c3c2)o1 [Lapatinib] (partner 2 µM)
How it was run: as §1

[3] = compound: CC1=C(C(=O)N2C=CSC2=N1)CCN3CCC(=C(C4=CC=CC=C4)C5=CC=C(C=C5)F)CC3 + C[C@]1(O)C[C@@H](c2nc(-c3ccc4ccc(-c5ccccc5)nc4c3)c3c(N)nccn32)C1 [Linsitinib] (partner 1 µM)
How it was run: as §1

[4] = compound: CC1=C(C(=O)N2C=CSC2=N1)CCN3CCC(=C(C4=CC=CC=C4)C5=CC=C(C=C5)F)CC3 + Cc1nc(NC(=O)N2CCC[C@H]2C(N)=O)sc1-c1ccnc(C(C)(C)C(F)(F)F)c1 [Alpelisib] (partner 2 µM)
How it was run: as §1

Cell Line	relative viability ([1]; first compound 0.08 µM)	relative viability ([1]; first compound 0.253 µM)	relative viability ([1]; first compound 0.8 µM)	relative viability ([1]; first compound 2.53 µM)	relative viability ([1]; first compound 8 µM)	relative viability ([2]; first compound 0.08 µM)	relative viability ([2]; first compound 0.253 µM)	relative viability ([2]; first compound 0.8 µM)	relative viability ([2]; first compound 2.53 µM)	relative viability ([2]; first compound 8 µM)	relative viability ([3]; first compound 0.08 µM)	relative viability ([3]; first compound 0.253 µM)	relative viability ([3]; first compound 0.8 µM)	relative viability ([3]; first compound 2.53 µM)	relative viability ([3]; first compound 8 µM)	relative viability ([4]; first compound 0.08 µM)	relative viability ([4]; first compound 0.253 µM)	relative viability ([4]; first compound 0.8 µM)	relative viability ([4]; first compound 2.53 µM)	relative viability ([4]; first compound 8 µM)
HCC-78	0.352	0.349	0.406	0.356	0.326	0.851	0.784	0.731	0.779	0.51	0.547	0.499	0.518	0.54	0.443	0.352	0.347	0.324	0.379	0.286
HCC-366	1.17	1.2	1.04	1.12	0.252	–	0.778	1.02	1.71	0.412	–	0.645	0.594	0.946	0.265	–	0.428	0.471	0.605	0.243
HCC-827	0.761	0.776	0.842	0.833	0.62	0.198	0.189	0.201	0.196	0.188	0.961	0.969	0.927	0.996	0.926	0.971	0.964	0.979	1.15	0.859
HOP-62	0.92	0.771	0.837	0.824	0.488	0.785	1.03	1.2	0.862	0.482	1.24	0.948	1	1.06	0.49	0.974	0.852	0.971	0.945	0.56
LC-2-ad	0.876	0.994	0.87	0.913	0.663	1.01	1.08	0.88	1.2	0.861	0.828	0.927	0.885	0.893	0.663	0.936	0.91	0.789	0.962	0.794
LCLC-97TM1	0.585	0.585	0.507	0.487	0.369	0.7	1	1.08	1.03	0.677	0.185	0.161	0.19	0.197	0.164	0.184	0.265	0.226	0.304	0.148
LCLC-103H	0.567	0.605	0.401	0.462	0.411	–	–	–	–	–	1.03	1.04	0.973	0.924	0.858	1.08	1	1.12	1.01	0.918
LK-2	0.242	0.188	0.156	0.18	0.212	0.764	0.772	1.01	0.903	0.633	0.548	0.531	0.846	0.502	0.529	1.24	1.19	1.23	1.08	0.773
LOU-NH91	0.734	0.769	0.767	0.76	0.642	0.774	0.809	0.765	0.814	0.803	0.923	0.932	1.01	1.02	0.821	0.687	0.709	0.807	0.749	0.677
LU99A	0.333	0.313	0.254	0.276	0.25	0.894	1.04	0.998	1.06	0.835	0.565	0.495	0.517	0.666	0.446	0.47	0.47	0.496	0.621	0.456
LXF-289	0.784	0.79	0.779	0.884	0.55	0.98	0.953	0.926	0.907	0.844	0.948	1.1	0.989	0.96	0.83	1.06	1.07	1.08	1.03	0.917
NCI-H23	0.572	0.517	0.482	0.738	0.399	0.932	0.829	1.04	1.35	0.621	0.525	0.762	0.616	0.676	0.339	0.694	0.545	0.772	0.829	0.411
NCI-H441	0.505	0.582	0.576	0.754	0.416	–	–	–	–	–	–	0.541	0.777	0.654	0.355	–	0.638	0.79	1.01	0.588
NCI-H522	0.857	0.804	0.766	0.633	0.811	–	–	–	–	–	–	–	–	–	–	–	–	–	–	–
NCI-H1299	–	–	–	–	–	1.04	0.88	0.97	1.03	0.767	0.901	0.98	1.09	0.932	0.607	0.997	1.09	1.08	1.03	0.54
NCI-H1648	0.229	–	–	0.209	0.265	–	–	–	–	–	–	–	–	–	–	–	–	–	–	–
NCI-H1650	0.539	0.736	0.583	0.561	0.353	0.685	0.891	0.709	0.925	0.579	–	–	–	–	–	–	–	–	–	–
NCI-H1703	–	–	–	–	–	1.57	0.717	1.23	1.69	0.62	1.14	0.819	0.585	0.888	0.482	0.372	0.316	0.278	0.463	0.306
NCI-H2170	0.774	0.673	0.734	0.726	0.604	0.274	0.268	0.276	0.278	0.274	–	–	–	–	–	0.753	0.771	0.844	0.836	0.76
NCI-H2342	0.567	0.617	0.636	0.602	0.622	–	–	–	–	–	–	–	–	–	–	–	–	–	–	–
SW 900	0.452	0.543	0.582	0.719	0.276	–	–	–	–	–	–	–	–	–	–	–	–	–	–	–
